# Data reported in publication PMC13254586, “C-terminal dimerization motifs control asynchronous chain elongation during modular polyketide biosynthesis [drawing 1]” (The Journal of Biological Chemistry, 2026).
# Key:
# M1-DD = molecular target: T1, M1-DD (Amycolatopsis mediterranei, UniProt O54666); assay: cryo-EM structure; format: binding; settings: covalent on CP Ser1538; Ppant occupies KS active site tunnel; elongation mode; 3.22 Å; Fab 1B2 bound
# T1 construct: gene rifA; RIFS module 1 (KS-AT-DH0-KR-CP) with N- and C-terminal docking domains of the erythromycin assembly line, C-terminal His6; holo form, E. coli BAP1; homodimer
# LM-M1-DD = molecular target: T2, LM-M1-DD (Amycolatopsis mediterranei, UniProt O54666); assay: LC-MS/MS-MRM of hydrolysed diketide, single turnover; format: biochemical; settings: ATP/Mg2+, racemic MeMal-CoA, pH 7.3, room temperature
# T2 construct: gene rifA; RIFS loading module plus module 1 bimodule (A-CP, KS-AT-DH0-KR-CP) with C-terminal docking domain (DD) of the erythromycin synthase; holo form, E. coli BAP1; Ni-NTA purified; homodimer
# LM-M1-TEII° = molecular target: T3, LM-M1-TEII° (Amycolatopsis mediterranei, UniProt O54666); assay: as above; format: biochemical; settings: ATP/Mg2+, racemic MeMal-CoA, NADPH; pH 7.3; room temperature
# T3 construct: gene rifA; holo form, E. coli BAP1; homodimer
# T3 sequence (O54666 1-2180 limits assumed): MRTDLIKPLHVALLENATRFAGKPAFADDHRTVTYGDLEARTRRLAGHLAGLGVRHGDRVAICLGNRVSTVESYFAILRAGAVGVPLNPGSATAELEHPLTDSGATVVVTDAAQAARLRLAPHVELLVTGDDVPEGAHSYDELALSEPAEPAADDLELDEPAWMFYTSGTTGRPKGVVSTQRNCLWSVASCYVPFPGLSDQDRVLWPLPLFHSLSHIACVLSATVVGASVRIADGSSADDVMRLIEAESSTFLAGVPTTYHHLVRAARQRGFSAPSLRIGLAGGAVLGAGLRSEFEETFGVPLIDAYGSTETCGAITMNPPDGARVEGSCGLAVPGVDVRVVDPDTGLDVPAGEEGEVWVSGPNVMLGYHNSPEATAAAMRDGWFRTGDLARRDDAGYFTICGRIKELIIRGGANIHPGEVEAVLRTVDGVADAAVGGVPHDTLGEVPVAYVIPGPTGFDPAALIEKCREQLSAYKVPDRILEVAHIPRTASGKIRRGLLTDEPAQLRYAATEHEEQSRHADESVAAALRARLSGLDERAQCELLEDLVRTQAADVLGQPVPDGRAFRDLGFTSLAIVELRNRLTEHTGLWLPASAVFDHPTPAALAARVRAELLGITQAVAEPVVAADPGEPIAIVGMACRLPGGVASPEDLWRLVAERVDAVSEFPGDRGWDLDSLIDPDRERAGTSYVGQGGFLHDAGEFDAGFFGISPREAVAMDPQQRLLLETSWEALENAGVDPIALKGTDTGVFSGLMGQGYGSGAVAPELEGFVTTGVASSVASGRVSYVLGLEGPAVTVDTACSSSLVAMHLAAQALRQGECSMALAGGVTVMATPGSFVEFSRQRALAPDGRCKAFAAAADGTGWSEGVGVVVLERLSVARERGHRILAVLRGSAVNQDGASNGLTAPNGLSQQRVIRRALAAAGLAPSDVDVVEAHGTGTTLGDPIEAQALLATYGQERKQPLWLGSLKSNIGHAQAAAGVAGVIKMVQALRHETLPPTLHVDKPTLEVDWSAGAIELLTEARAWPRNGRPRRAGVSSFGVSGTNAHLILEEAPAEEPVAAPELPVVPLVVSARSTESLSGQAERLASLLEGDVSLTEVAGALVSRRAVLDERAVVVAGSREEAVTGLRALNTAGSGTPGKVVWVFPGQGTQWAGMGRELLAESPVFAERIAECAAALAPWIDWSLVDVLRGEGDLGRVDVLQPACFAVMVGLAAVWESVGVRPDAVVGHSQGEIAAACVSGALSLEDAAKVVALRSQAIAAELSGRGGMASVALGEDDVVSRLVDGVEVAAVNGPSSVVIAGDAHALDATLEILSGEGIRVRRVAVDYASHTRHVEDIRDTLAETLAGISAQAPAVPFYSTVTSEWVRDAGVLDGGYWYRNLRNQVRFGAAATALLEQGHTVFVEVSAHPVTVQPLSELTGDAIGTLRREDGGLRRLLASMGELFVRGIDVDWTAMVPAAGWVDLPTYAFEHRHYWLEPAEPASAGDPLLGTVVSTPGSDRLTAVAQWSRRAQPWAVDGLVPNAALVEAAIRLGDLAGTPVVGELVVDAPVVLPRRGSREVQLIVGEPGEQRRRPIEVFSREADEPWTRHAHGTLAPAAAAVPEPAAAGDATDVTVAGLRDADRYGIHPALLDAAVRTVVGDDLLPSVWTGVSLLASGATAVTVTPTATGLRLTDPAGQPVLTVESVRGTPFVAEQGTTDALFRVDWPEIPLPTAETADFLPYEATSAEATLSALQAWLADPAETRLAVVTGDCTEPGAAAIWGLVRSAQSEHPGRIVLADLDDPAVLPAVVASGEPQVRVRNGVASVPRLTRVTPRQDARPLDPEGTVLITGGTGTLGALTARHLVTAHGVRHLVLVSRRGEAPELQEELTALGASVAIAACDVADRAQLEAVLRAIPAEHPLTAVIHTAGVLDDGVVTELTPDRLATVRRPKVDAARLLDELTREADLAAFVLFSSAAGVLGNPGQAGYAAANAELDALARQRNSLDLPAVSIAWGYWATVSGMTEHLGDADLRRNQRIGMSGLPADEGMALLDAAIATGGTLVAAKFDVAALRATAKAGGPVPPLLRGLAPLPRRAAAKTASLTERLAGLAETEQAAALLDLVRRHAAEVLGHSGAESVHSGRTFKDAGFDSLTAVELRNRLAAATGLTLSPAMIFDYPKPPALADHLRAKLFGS
# T3 sequence (Q7BUF9 1-259 S94A partner): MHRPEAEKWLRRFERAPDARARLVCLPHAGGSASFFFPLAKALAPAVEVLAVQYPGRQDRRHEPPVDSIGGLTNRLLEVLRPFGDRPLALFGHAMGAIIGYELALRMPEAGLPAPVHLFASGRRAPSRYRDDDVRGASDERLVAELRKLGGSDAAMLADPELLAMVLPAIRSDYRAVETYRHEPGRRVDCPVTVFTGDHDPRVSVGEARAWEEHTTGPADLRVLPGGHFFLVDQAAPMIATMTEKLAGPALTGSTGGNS
# T2 sequence (O54666 1-2179 limits assumed): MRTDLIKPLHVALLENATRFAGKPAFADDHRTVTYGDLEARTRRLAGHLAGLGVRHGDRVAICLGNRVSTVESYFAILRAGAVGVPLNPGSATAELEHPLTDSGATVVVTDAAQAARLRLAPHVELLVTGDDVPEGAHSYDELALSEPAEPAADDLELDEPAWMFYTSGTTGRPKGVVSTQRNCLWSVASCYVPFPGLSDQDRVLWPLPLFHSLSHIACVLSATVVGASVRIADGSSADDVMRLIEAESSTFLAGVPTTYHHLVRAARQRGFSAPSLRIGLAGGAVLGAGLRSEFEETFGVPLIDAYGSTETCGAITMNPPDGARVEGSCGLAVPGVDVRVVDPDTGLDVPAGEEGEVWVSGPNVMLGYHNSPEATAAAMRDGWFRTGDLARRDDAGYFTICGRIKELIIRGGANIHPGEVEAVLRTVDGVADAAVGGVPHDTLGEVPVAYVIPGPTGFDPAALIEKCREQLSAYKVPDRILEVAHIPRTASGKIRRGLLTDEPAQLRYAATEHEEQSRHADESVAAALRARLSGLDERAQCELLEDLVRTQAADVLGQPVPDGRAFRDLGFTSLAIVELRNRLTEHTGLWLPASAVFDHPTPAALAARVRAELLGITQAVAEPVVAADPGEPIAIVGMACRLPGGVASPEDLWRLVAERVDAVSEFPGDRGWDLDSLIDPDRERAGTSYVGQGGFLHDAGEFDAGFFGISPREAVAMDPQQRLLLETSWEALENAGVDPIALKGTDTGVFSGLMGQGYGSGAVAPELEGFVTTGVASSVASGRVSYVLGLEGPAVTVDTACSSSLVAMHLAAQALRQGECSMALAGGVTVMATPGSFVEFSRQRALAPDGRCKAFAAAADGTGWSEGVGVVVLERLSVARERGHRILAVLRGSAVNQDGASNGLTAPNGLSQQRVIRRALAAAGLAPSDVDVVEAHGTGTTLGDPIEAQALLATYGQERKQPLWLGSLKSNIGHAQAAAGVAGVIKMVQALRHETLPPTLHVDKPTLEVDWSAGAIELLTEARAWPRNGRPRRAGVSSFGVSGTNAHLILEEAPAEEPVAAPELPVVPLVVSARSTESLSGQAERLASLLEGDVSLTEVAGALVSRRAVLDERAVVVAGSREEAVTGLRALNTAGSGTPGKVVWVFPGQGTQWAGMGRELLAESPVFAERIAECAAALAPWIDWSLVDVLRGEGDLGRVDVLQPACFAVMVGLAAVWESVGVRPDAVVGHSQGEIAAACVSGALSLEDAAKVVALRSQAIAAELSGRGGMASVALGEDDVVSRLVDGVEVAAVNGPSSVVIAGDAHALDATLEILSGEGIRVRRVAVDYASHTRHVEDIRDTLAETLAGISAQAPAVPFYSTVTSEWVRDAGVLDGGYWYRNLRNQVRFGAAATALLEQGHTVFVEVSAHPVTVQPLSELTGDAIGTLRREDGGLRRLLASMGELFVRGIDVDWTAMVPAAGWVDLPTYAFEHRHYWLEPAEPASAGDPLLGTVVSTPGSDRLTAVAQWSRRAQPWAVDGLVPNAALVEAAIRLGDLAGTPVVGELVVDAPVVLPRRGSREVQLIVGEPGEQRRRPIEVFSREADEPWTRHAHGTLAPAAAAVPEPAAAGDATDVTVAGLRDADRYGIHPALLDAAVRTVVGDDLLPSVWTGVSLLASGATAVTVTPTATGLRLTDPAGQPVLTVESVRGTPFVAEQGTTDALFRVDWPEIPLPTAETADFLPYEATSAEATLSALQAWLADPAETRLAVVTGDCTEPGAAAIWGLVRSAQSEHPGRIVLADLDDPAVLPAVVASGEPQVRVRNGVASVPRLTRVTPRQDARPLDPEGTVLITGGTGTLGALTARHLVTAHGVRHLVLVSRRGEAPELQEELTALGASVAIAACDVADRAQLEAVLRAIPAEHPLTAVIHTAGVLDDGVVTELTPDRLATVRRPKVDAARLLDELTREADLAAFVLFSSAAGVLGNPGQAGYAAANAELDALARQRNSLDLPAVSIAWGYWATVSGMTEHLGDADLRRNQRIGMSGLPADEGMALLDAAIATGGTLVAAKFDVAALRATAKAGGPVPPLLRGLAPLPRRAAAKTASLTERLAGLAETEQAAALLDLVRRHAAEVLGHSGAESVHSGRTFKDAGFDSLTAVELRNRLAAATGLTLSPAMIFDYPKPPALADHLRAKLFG
structure (smiles),measurement,setting,value
CC(C)(COP(=O)(O)O)[C@@H](O)C(=O)NCCC(=O)NCCS [4′-phosphopantetheine],cryo-EM structure,M1-DD,within the KS active site tunnel occupied by the Ppant cofactor
NC(=O)C1=CN([C@@H]2O[C@H](COP(=O)(O)OP(=O)(O)OC[C@H]3O[C@@H](n4cnc5c(N)ncnc54)[C@H](OP(=O)(O)O)[C@@H]3O)[C@@H](O)[C@H]2O)C=CC1 [NADPH],"LC-MS/MS-MRM of hydrolysed diketide, single turnover","LM-M1-DD; 1 mM NADPH present or absent, benzoate",expected time- and NADPH-dependent accumulation of hydrolyzed keto-d2
O=C(O)c1ccccc1 [benzoate],"LC-MS/MS-MRM of hydrolysed diketide, single turnover",LM-M1-DD; NADPH,both LM-M1-DD and LM-M1-TEII° were catalytically active
same,"LC-MS/MS-MRM of hydrolysed diketide, single turnover",LM-M1-TEII°,both LM-M1-DD and LM-M1-TEII° were catalytically active
